Assay results published in the NIST ThermoML archive (doi:10.1021/je0504212).

Assays:
[1] = excess molar enthalpy (molar enthalpy of mixing); xn = mol fraction of the nth substance listed; conditions: 308.15 K, 101 kPa, Liquid, Flow calorimetry
[2] = 308.5 K; 101.33 kPa; Liquid

CCOCCOCCO [3,6-dioxa-1-octanol] + OCc1ccccc1
[1]
Conditions	excess molar enthalpy [kcal/mol]
x1 = 0.0289	-0.0471
x1 = 0.0561	-0.0828
x1 = 0.0819	-0.1102
x1 = 0.1063	-0.1318
x1 = 0.1514	-0.1627
x1 = 0.1921	-0.1839
x1 = 0.2629	-0.2083
x1 = 0.3223	-0.2197
x1 = 0.4164	-0.225
x1 = 0.517	-0.2142
x1 = 0.588	-0.1989
x1 = 0.6816	-0.1701
x1 = 0.7405	-0.1475
x1 = 0.8106	-0.1164
x1 = 0.8509	-0.09579
x1 = 0.8954	-0.0707
x1 = 0.9448	-0.0393

OCCOCCO [diethylene glycol]
Conditions	mass density [kg/m3]
[2]	1105.86

CCOCCOCCOCC [diethylene glycol diethyl ether] + OCc1ccccc1
[1]
Conditions	excess molar enthalpy [kcal/mol]
x1 = 0.0234	-0.0401
x1 = 0.0458	-0.0728
x1 = 0.0672	-0.09959
x1 = 0.0876	-0.1215
x1 = 0.1259	-0.1547
x1 = 0.1611	-0.1773
x1 = 0.2236	-0.203
x1 = 0.2774	-0.2131
x1 = 0.3655	-0.2129
x1 = 0.4635	-0.1973
x1 = 0.5353	-0.1792
x1 = 0.6334	-0.1493
x1 = 0.6973	-0.1268
x1 = 0.7756	-0.09598
x1 = 0.8217	-0.0766
x1 = 0.8736	-0.0537
x1 = 0.9325	-0.0274

CCOCCO [2-ethoxyethan-1-ol]
Conditions	mass density [kg/m3]
[2]	916

CCOCCO [2-ethoxyethan-1-ol] + OCc1ccccc1
[1]
Conditions	excess molar enthalpy [kcal/mol]
x1 = 0.0424	-0.0217
x1 = 0.0814	-0.0387
x1 = 0.1173	-0.0522
x1 = 0.1505	-0.0635
x1 = 0.21	-0.0803
x1 = 0.2617	-0.09209
x1 = 0.3471	-0.1055
x1 = 0.4148	-0.1101
x1 = 0.5154	-0.1094
x1 = 0.6147	-0.1001
x1 = 0.6802	-0.08972
x1 = 0.7613	-0.0722
x1 = 0.8097	-0.0592
x1 = 0.8645	-0.0422
x1 = 0.8948	-0.0319
x1 = 0.9273	-0.0211
x1 = 0.9623	-0.00994

CCOCCOCCO [3,6-dioxa-1-octanol]
Conditions	mass density [kg/m3]
[2]	974.67

CCOCCOCCOCC [diethylene glycol diethyl ether]
Conditions	mass density [kg/m3]
[2]	893.08

COCCOC [1,2-dimethoxyethane]
Conditions	mass density [kg/m3]
[2]	850.28

CCOCCOCCOCCO [2-(2-(2-ethoxyethoxy)ethoxy)ethanol]
Conditions	mass density [kg/m3]
[2]	1008.8

COCCOC [1,2-dimethoxyethane] + OCc1ccccc1
[1]
Conditions	excess molar enthalpy [kcal/mol]
x1 = 0.0395	0.0173
x1 = 0.076	0.0136
x1 = 0.1098	0.000693
x1 = 0.1413	-0.0149
x1 = 0.1979	-0.0436
x1 = 0.2476	-0.0633
x1 = 0.3305	-0.0801
x1 = 0.3969	-0.08
x1 = 0.4968	-0.0624
x1 = 0.5969	-0.0293
x1 = 0.6638	0.00306
x1 = 0.7476	0.0543
x1 = 0.7979	0.08707
x1 = 0.8555	0.1169
x1 = 0.8876	0.1236
x1 = 0.9221	0.1161
x1 = 0.9595	0.08243

CCOCCOCCOCCO [2-(2-(2-ethoxyethoxy)ethoxy)ethanol] + OCc1ccccc1
[1]
Conditions	excess molar enthalpy [kcal/mol]
x1 = 0.0241	-0.0471
x1 = 0.047	-0.08444
x1 = 0.0689	-0.1138
x1 = 0.0898	-0.1373
x1 = 0.129	-0.1713
x1 = 0.1648	-0.1944
x1 = 0.2284	-0.2216
x1 = 0.283	-0.236
x1 = 0.3719	-0.2477
x1 = 0.4704	-0.2462
x1 = 0.5422	-0.2354
x1 = 0.6398	-0.2077
x1 = 0.7031	-0.1828
x1 = 0.7804	-0.1459
x1 = 0.8257	-0.1219
x1 = 0.8766	-0.09221
x1 = 0.9343	-0.0542

CCOCCOCC [1,2-diethoxyethane]
Conditions	mass density [kg/m3]
[2]	826.22

CCOCCOCC [1,2-diethoxyethane] + OCc1ccccc1
[1]
Conditions	excess molar enthalpy [kcal/mol]
x1 = 0.0296	-0.0118
x1 = 0.0575	-0.0292
x1 = 0.0838	-0.0483
x1 = 0.1087	-0.0659
x1 = 0.1546	-0.09515
x1 = 0.196	-0.1143
x1 = 0.2678	-0.1312
x1 = 0.3278	-0.1323
x1 = 0.4225	-0.1224
x1 = 0.5232	-0.1073
x1 = 0.594	-0.09457
x1 = 0.687	-0.0683
x1 = 0.7453	-0.0439
x1 = 0.8144	-0.0092
x1 = 0.8541	0.0102
x1 = 0.8977	0.0262
x1 = 0.9461	0.0297

OCCOCCOCCO [triethylene glycol]
Conditions	mass density [kg/m3]
[2]	1112.59

OCc1ccccc1 [benzenemethanol]
Conditions	mass density [kg/m3]
[2]	1033.64

OCc1ccccc1 [benzenemethanol] + CCCCOCCCC
[1]
Conditions	excess molar enthalpy [kcal/mol]
x2 = 0.0247	-0.0016
x2 = 0.0481	0.000239
x2 = 0.0705	0.00425
x2 = 0.0918	0.00963
x2 = 0.1317	0.0222
x2 = 0.1682	0.0355
x2 = 0.2327	0.0605
x2 = 0.288	0.0821
x2 = 0.3776	0.1136
x2 = 0.4765	0.1406
x2 = 0.5482	0.1535
x2 = 0.6454	0.1627
x2 = 0.7082	0.1645
x2 = 0.7845	0.1608
x2 = 0.8292	0.1533
x2 = 0.8792	0.1362
x2 = 0.9357	0.09577
